The values that follow come from patent EP4595966A1, “USE OF NPY/Y5R INHIBITOR IN TREATING LIVER METASTASIS” (Friedrich-Alexander-Universität Erlangen-Nürnberg, priority 2024, dated 2025).

In series [1] the test system is human melanoma cells (SkMel28). The experiment in a line: Clonogenicity assays (two- and three-dimensional colony formation), human melanoma cells. Format: cell-based. Conditions: human (metastatic) melanoma cells. The source says: (§1) • Figure 1 A-B. Boyden chamber analysis and representative images (10-fold original magnification) of chemotaxis of human melanoma cells (SkMel28) towards recombinant NPY (lower chamber) with or without application of Y5R specific inhibitor CGP71683 (Y5Ri) (upper chamber) compared to migration towards serum free medium (n = 9). Arrowheads indicate migrated cells. • Figure 2. Representative images of colony number and colony size of human melanoma cells (SkMel28) in clonogenicity assays with application of increasing concentrations of Y5R inhibitor (Y5Ri) (n = 3). • Figure 3. Schematic illustration of the experimental procedure: splenic injection of murine melanoma cells (B16) in C57BL/6 mice on day 0; intraperitoneal injection of Y5R inhibitor CGP71683 (Y5Ri) (15 mg/kg body weight per injection) or solvent only (DMSO) as control on indicated days; end of experiment eight days after cell implantation. • Figure 4. Explanted metastases bearing spleens and livers of DMSO (control) and Y5Ri treated mice after splenic injection of B16 melanoma cells. • Figure 5. Macroscopic classification of livers from DMSO (n = 11) and Y5Ri treated mice (n = 9) into very low / low versus moderate / high liver metastasis. • Figure 6. A. CHK2 level in NPY^-/- mice compared to control WT mice measured by IHC analysis. B. CHK2 level in Y5Ri-treated mice compared to control DMSO-treated mice measured by IHC analysis. • Figure 7. […] A. Quantification of NPY mRNA expression levels in liver tissues from mice treated with control LNPs ("Control", LNPs bearing control siRNA pool, n = 11) and from mice treated with LNPs bearing siRNA pool targeting murine NPY ("LNP-siNPY", n = 11). B. Quantification of NPY protein levels in liver tissues from mice treated with control LNPs (n = 11) and LNP-siNPY treated mice (n = 11). • Figure 9 A-B. ELISA based protein expression analysis of absolute NPY levels in liver tissues and serum samples from LNP-siNPY treated mice (n = 10) compared to mice treated with control LNPs (LNPs bearing control siRNA pool, n = 11) after splenic melanoma cell injection. • Figure 10. […] A. Quantification of number of metastases in liver tissues from LNP-siNPY treated mice (n = 10) compared to mice treated with control LNPs (LNPs bearing control siRNA pool, n = 11). B. Quantification of metastases size in liver tissues from LNP-siNPY treated mice (n = 10) compared to mice treated with control LNPs (LNPs bearing control siRNA pool, n = 11). • Figure 13. […] A. Quantification of pERK protein expression in metastatic liver tissue samples of LNP-siNPY treated mice (n = 6) compared to mice treated with control LNPs (LNPs bearing control siRNA pool, n = 6). […]

The subject of series [2] is human melanoma cells (SkMel28). In words: Boyden chamber chemotactic migration, human melanoma cells. The series is classed as cell-based. Conditions: for NPY-induced chemotactic migration: melanoma cells, migration towards recombinant NPY, co-treatment with the substance.
Source text: as §1

Series [3] deals with CRC, PC and BC cell lines. In words: Clonogenicity assays, CRC, PC and BC cell lines. The series is classed as cell-based. The source says:
(§2) Normal human epidermal melanocytes (NHEM), the human primary melanoma cell lines Mel Juso, Mel Ei, Mel Wei and metastatic human melanoma cell lines SkMel28 (ATCC CRL-1469™), Mel Im, Mel Ju, SkMel3 (ATCC HTB-69™) were described previously (Jacob et al., 1998; Heimerl et al., 2007). Primary human hepatocytes (PHH) were isolated and cultured as described elsewhere (Dietrich et al., 2017; Lee et al., 2013). In addition, the human breast cancer cell line MCF-7 (ATCC HTB-22™), the human pancreatic cancer cell line Panc-1 (ATCC CRL-1469™) and the human colon cancer cell lines HT29 (ATCC HTB-38™), Caco-2 (ATCC HTB-37™) and LoVo (ATCC CCL-229™) were used. The murine melanoma cell line B16 (ATCC CRL-6475™) was used for in vitro and in vivo studies. Furthermore, the murine pancreatic cancer cell line KPC and the murine colon cancer cell lines MC38 and CT26 (ATCC CRL-2638™) were used. Table 4. Summary and additional information of human and murine cell lines. BC: Breast cancer. CRC: Colorectal cancer. Hetero: Heterozygous genotype. Homo: Homozygous genotype. MET: Metastatic melanoma cell line. MM: Malignant melanoma. Nd: not determined / missing. PC: Pancreatic cancer. PT: Primary tumor melanoma cell line. Peri-tumor: Tumor-surrounding liver tissue. IR: immunoreactivity (score).
As described previously (Dietrich et al., 2017), clonogenic assays were performed to analyze stem cell behavior, attachment dependent colony formation and growth of cancer cells.
Anchorage independent colony formation and growth of cancer cells were analyzed using soft agar colony formation assays as described previously (Borowicz et al., 2014). Treatment with specific agonists and antagonists started 24 h after tumor cell seeding. Treatment was repeated after five and nine days. Microscopic analysis of the obtained colonies was conducted 14 days after tumor cell seeding.

The subject of series [4] is CRC, PC and BC cell lines. The experiment in a line: Boyden chamber NPY-mediated chemotactic migration, CRC, PC and BC cell lines. The series is classed as cell-based.
Source text: as §2
As described previously (Dietrich et al., 2017), Boyden chamber assays were used in order to analyze cell migration. Boyden chamber filters were additionally coated with Matrigel to analyze cell invasion.

In series [5] the test system is B16 melanoma cells (liver metastasis). The experiment in a line: Spleen-liver metastasis model with Y5R inhibitor treatment. Format: in vivo, C57BL/6 mice. The text has this: • Figure 1 A-B. Boyden chamber analysis and representative images (10-fold original magnification) of chemotaxis of human melanoma cells (SkMel28) towards recombinant NPY (lower chamber) with or without application of Y5R specific inhibitor CGP71683 (Y5Ri) (upper chamber) compared to migration towards serum free medium (n = 9). Arrowheads indicate migrated cells. • Figure 2. Representative images of colony number and colony size of human melanoma cells (SkMel28) in clonogenicity assays with application of increasing concentrations of Y5R inhibitor (Y5Ri) (n = 3). • Figure 3. Schematic illustration of the experimental procedure: splenic injection of murine melanoma cells (B16) in C57BL/6 mice on day 0; intraperitoneal injection of Y5R inhibitor CGP71683 (Y5Ri) (15 mg/kg body weight per injection) or solvent only (DMSO) as control on indicated days; end of experiment eight days after cell implantation. • Figure 4. Explanted metastases bearing spleens and livers of DMSO (control) and Y5Ri treated mice after splenic injection of B16 melanoma cells. • Figure 5. Macroscopic classification of livers from DMSO (n = 11) and Y5Ri treated mice (n = 9) into very low / low versus moderate / high liver metastasis. • Figure 6. A. CHK2 level in NPY^-/- mice compared to control WT mice measured by IHC analysis. B. CHK2 level in Y5Ri-treated mice compared to control DMSO-treated mice measured by IHC analysis. • Figure 7. Schematic illustration of the experimental procedure: pre-treatment of C57BL/6 mice with lipid nanoparticles (LNP) bearing control siRNA pool or siNPY pool (pool of siRNAs targeting murine NPY) one day before surgery (day -1); splenic injection of murine melanoma cells (B16) on day 0; intraperitoneal injection of LNPs with control siRNA pool or siNPY pool as indicated; end of experiment six days after cell implantation. • Figure 8. A. Quantification of NPY mRNA expression levels in liver tissues from mice treated with control LNPs ("Control", LNPs bearing control siRNA pool, n = 11) and from mice treated with LNPs bearing siRNA pool targeting murine NPY ("LNP-siNPY", n = 11). B. Quantification of NPY protein levels in liver tissues from mice treated with control LNPs (n = 11) and LNP-siNPY treated mice (n = 11). • Figure 9 A-B. ELISA based protein expression analysis of absolute NPY levels in liver tissues and serum samples from LNP-siNPY treated mice (n = 10) compared to mice treated with control LNPs (LNPs bearing control siRNA pool, n = 11) after splenic melanoma cell injection. • Figure 10. […] A. Quantification of number of metastases in liver tissues from LNP-siNPY treated mice (n = 10) compared to mice treated with control LNPs (LNPs bearing control siRNA pool, n = 11). B. Quantification of metastases size in liver tissues from LNP-siNPY treated mice (n = 10) compared to mice treated with control LNPs (LNPs bearing control siRNA pool, n = 11). • Figure 13. […] A. Quantification of pERK protein expression in metastatic liver tissue samples of LNP-siNPY treated mice (n = 6) compared to mice treated with control LNPs (LNPs bearing control siRNA pool, n = 6). B. Quantification of pCHK2 protein expression in metastatic liver tissue samples of LNP-siNPY treated mice (n = 6) compared to samples from control treatment (control siPool bearing LNPs) (n = 6). • Figure 15. […]

The subject of series [6] is metastatic CRC organoids. In words: Ki67 expression in metastatic CRC organoids. The note with it: vs controls. The series is classed as cell-based, murine. Here is the method: Murine APTAK organoids were used for in vitro and in vivo experiments. These APTAK tumor organoids are deficient in Apc, Tp53, Tgfbr2 and express constitutively activated Kras and activated Akt1. Organoids were generated and CRC models were conducted in a similar way as previously described (Heichler et al., 2020). In an orthotopic mouse model for CRC and CRC (liver) metastasis, single cell suspensions from genetically engineered APTAK organoids were injected into the submucosa of wildtype mice.
Immunohistochemistry (IHC) and immunofluorescence analyses were performed using tissue microarrays consisting of human cancer tissue samples and mouse paraffin-embedded tissue sections as described previously (Dietrich et al., 2017; Dietrich et al., 2020). […] For each antibody, immunohistochemistry staining was evaluated semi-quantitatively and scores were calculated as described previously (Dietrich et al., 2017; Dietrich et al., 2020).

The test system of series [7] is pCHK2. In words: pCHK2 levels in melanoma cells in vitro. Format: cell-based. Conditions: (metastatic) melanoma cells in vitro. Here is the method: As described in detail in previous studies (Dietrich et al., 2017), Western blots and densitometric quantification were performed using the following primary antibodies: anti-β-actin antibody (catalog no. A1978, Sigma-Aldrich; 1 in 5,000 dilution), anti-phospho-ERK antibody (catalog no. #9101, Cell Signaling, Frankfurt am Main, Germany; 1 in 4,000 dilution), anti-ERK antibody (catalog no. #9102, Cell Signaling; 1 in 1,000 dilution), anti-phospho-AKT antibody (catalog no. #9271, Cell Signaling, Frankfurt am Main, Germany; 1 in 2000 dilution), anti-AKT (catalog no. #9272, Cell Signaling, Frankfurt am Main, Germany; 1 in 2000 dilution), anti-Y5R antibody (catalog no. ab133757, Abcam; 1 in 30,000 dilution), anti-phospho-Chk2 antibody (catalog no. #2661, Cell Signaling, Frankfurt am Main, Germany; 1 in 1000 dilution), anti-phospho-p53 antibody (catalog no. #9284, Cell Signaling, Frankfurt am Main, Germany; 1 in 1000 dilution).

SMILES strings stand for the structures.

With `CC(=O)O[C@H]1[C@H]2O[C@]23[C@@H]2CC[C@@H]4C[C@@H](O)CC[C@]4(C)[C@H]2CC[C@]3(C)[C@H]1c1ccc(=O)oc1` [Cinobufagin], the clonogenicity result in series [1] is “strongly reduced clonogenicity”.
`NC(=O)NCc1ccc(CNC(=O)[C@@H](CCCN=C(N)N)NC(=O)C(c2ccccc2)c2ccccc2)cc1` [Y1Ri]: the NPY-induced chemotactic migration result in series [2] is listed as “not altered”. The clonogenicity result in series [1] is on record as “not affected”; in series [3] (CRC cells), “did not affect”; in series [3] (PC and BC cell lines), “did not affect clonogenicity”. Besides, the NPY-mediated chemotactic migration result in series [4] (CRC cells) is reported as “did not affect”; in series [4] (PC and BC cell lines) it was “sufficient to reduce NPY-mediated chemotactic migration”.
As to `N=C(N)NCCC[C@H](NC(=O)CC1(CC(=O)N2CCN(C3c4ccccc4NC(=O)c4ccccc43)CC2)CCCC1)C(=O)NCCn1c(=O)n(-c2ccccc2)n(-c2ccccc2)c1=O` (stereo partly drawn) [Y2Ri], the NPY-induced chemotactic migration entry in series [2] was “not altered”. Further, the clonogenicity result in series [1] is reported as “not affected”; in series [3] (CRC cells), “did not affect”; in series [3] (PC and BC cell lines) it was “did not affect clonogenicity”. For the same compound, the NPY-mediated chemotactic migration result in series [4] (CRC cells) is given as “did not affect”; in series [4] (PC and BC cell lines), “not affected”.
Turning to `Nc1nc(NC[C@H]2CC[C@H](CNS(=O)(=O)c3cccc4ccccc34)CC2)nc2ccccc12` [Y5Ri, N-[[trans-4-[[(4-amino-2-quinazolinyl)amino]methyl]cyclohexyl]methyl]-1-naphthalenesulfonamide], in series [2] (concomitant Y5R-inhibition), the “chemotactic migration induced by hepatocyte-derived, NPY-containing supernatants or by liver lysates from wildtype mice” value is recorded as “significantly reduced”. In series [2], the NPY-induced chemotactic migration result is on record as “antagonized NPY-induced chemotactic migration”. Moreover, the clonogenicity entry in series [1] is listed as “strongly reduced clonogenicity”; in series [3] (CRC, PC and BC cell lines), “confirmed”. Further, the liver transaminases entry in series [5] (mice, 15 mg/kg i.p. every 24 h) is “did not affect”. Besides, the “cleaved caspase 3 expression in liver metastatic cells” value in series [5] (mice, IHC) is “only slightly, however not significantly, enhanced”. In series [5] (splenic injection of B16 cells, 15 mg/kg i.p. every 24 h, vs vehicle control), the liver metastasis result is recorded as “significantly reduced liver metastasis”. Moreover, the “pCHK2 in liver metastasis” value in series [5] (treated mice vs controls, IHC (Figure 6B)) is recorded as “significant induction”. For the same compound, in series [5] (treated vs control-treated mice, IHC), the “Ki67 expression in liver metastasis” value was “significantly reduced”. Moreover, in series [6], the Ki67 expression entry was “significantly reduced Ki67 expression”. Also, the pCHK2 levels result in series [7] was “induced pCHK2”.
